Data set [1] can be described thus: Inhibition of RANKL-induced C57BL/6 mouse bone marrow monocytes differentiation into osteoclasts at 10 uM after 6 days in presence of M-CSF by tartrate-resistant acid phosphatase staining based assay relative to control. The note with it: C57BL/6, Bone marrow monocyte, 144 h. It is filed as functional.
Data set [2] can be described thus: Potency index, ratio of maslinic acid IC50 to compound IC50 for RANKL-induced C57BL/6 mouse bone marrow monocytes differentiation into osteoclasts. In kind it is functional, Bone marrow monocyte.
Data set [3] in a line: Inhibition of RANKL-induced C57BL/6 mouse bone marrow monocytes differentiation into osteoclasts at 0.1 uM after 6 days in presence of M-CSF by tartrate-resistant acid phosphatase staining based assay relative to control. In kind it is functional. The note with it: C57BL/6, Bone marrow monocyte, 144 h.
Data set [4] in a line: Inhibition of RANKL-induced C57BL/6 mouse bone marrow monocytes differentiation into osteoclasts at 2 uM after 6 days in presence of M-CSF by tartrate-resistant acid phosphatase staining based assay relative to control. In kind it is functional. The note with it: C57BL/6, Bone marrow monocyte, 144 h.
The nature of data set [5]: (§1) Inhibition of RANKL-induced C57BL/6 mouse bone marrow monocytes differentiation into osteoclasts after 6 days in presence of M-CSF by tartrate-resistant acid phosphatase staining based assay. In kind it is functional, cell-based. The note with it: C57BL/6, Bone marrow monocyte, 144 h.
The nature of data set [6]: Inhibition of RANKL-induced C57BL/6 mouse bone marrow monocytes differentiation into osteoclasts at 0.5 uM after 6 days in presence of M-CSF by tartrate-resistant acid phosphatase staining based assay relative to control. In kind it is functional. The following applies: C57BL/6, Bone marrow monocyte, 144 h.
A short description of data set [7]: Inhibition of RANKL-induced C57BL/6 mouse bone marrow macrophage differentiation into osteoclasts in presence of M-CSF by tartrate-resistant acid phosphatase staining based assay. It is filed as functional, cell-based. The following applies: C57BL/6, BMDM.
Data set [8] relates to Mus musculus. Description: Protection against ovariectomized-induced osteoporosis in C57BL/6 mouse assessed as reduction in femur structure model index at 20 mg/kg, ip administered for 60 days by micro computed tomography. In kind it is functional, organism-based.
Data set [9] concerns Bone marrow monocyte. The data set can be described thus: Inhibition of RANKL-induced NFATc1 mRNA expression in C57BL/6 mouse bone marrow monocytes measured after 5 days in presence of M-CSF by SYBR green-dye based qRT-PCR analysis. In kind it is functional, cell-based. In general terms: Real-time PCR tracks product formation cycle by cycle.
Data set [10] in a line: Cytotoxicity against C57BL/6 mouse bone marrow monocytes assessed as reduction in cell viability at 20 uM after 72 hrs in presence of M-CSF by MTS assay. In kind it is cell-based. The note with it: bone marrow monocyte. Background: Formazan colour is commonly taken as a measure of viable cells.
The species named for data set [11] is Mus musculus. Description: Inhibition of RANKL-induced IKK mediated IkappaBalpha degradation in mouse […] cells at 10 uM pretreated for 4 hrs followed by RANKL stimulation measured for 60 mins by Western blot method. It is filed as cell-based. In general terms: Immunoblotting shows a protein as a band on a membrane.
In data set [12] the target is MAP kinase p38 (Mus musculus) (UniProt P47811+O08911+Q9WUI1+Q9Z1B7). The data set can be described thus: Inhibition of RANKL-induced p38 phosphorylation in mouse […] cells at 10 uM pretreated for 4 hrs followed by RANKL stimulation measured for 60 mins by Western blot method. It is filed as cell-based.
Data set [13] concerns Mus musculus. Description: Inhibition of ovariectomized-induced osteoclast activity in C57BL/6 mouse femur at 5 mg/kg, ip administered for 60 days by tartrate-resistant acid phosphatase staining. In kind it is functional, organism-based.
In data set [14] the test system is Mus musculus. The data set can be described thus: Anti-osteoporotic activity in ovariectomized-induced osteoporosis in C57BL/6 mouse assessed as increase in bone strength at 20 mg/kg, ip administered for 60 days by three point bending test. It is filed as functional, organism-based.
Data set [15] concerns Bone marrow monocyte. Description: Inhibition of RANKL-induced cathepsin K mRNA expression in C57BL/6 mouse bone marrow monocytes at 10 uM in presence of M-CSF by SYBR green-dye based qRT-PCR analysis. It is filed as functional, cell-based. The following applies: TDE = time-dependent effect.
Data set [16] deals with Mus musculus. The data set can be described thus: Protection against ovariectomized-induced osteoporosis in C57BL/6 mouse assessed as increase in bone mineral density of femur at 20 mg/kg, ip administered for 60 days by micro computed tomography. In kind it is functional, organism-based.
The test system of data set [17] is Bone marrow monocyte. Description: Inhibition of RANKL-induced CTR mRNA expression in C57BL/6 mouse bone marrow monocytes at 10 uM in presence of M-CSF by SYBR green-dye based qRT-PCR analysis. In kind it is functional, cell-based. The note with it: TDE = time-dependent effect.
The species named for data set [18] is Mus musculus. The data set can be described thus: Inhibition of RANKL-induced IKK-mediated NF-kappa-B p65 phosphorylation in mouse […] cells at 10 uM pretreated for 4 hrs followed by RANKL stimulation measured for 60 mins by Western blot method. In kind it is cell-based.
Data set [19] has as its system Bone marrow monocyte. Description: Inhibition of RANKL-induced C-src mRNA expression in C57BL/6 mouse bone marrow monocytes measured after 5 days in presence of M-CSF by SYBR green-dye based qRT-PCR analysis. It is filed as functional, cell-based.
Data set [20] is described as follows: Effect on osteblast differentiation in mouse Mesenchymal stem cells at 2 to 10 uM measured after 7 days in presence of dexamethasone/b-glycerophosphate/Vitamin C by ALP staining assay. The note with it: mesenchymal stem cell, 168 h. It is filed as cell-based.
For data set [21], the species on record is Mus musculus. Description: Inhibition of RANKL-induced JNK phosphorylation in mouse […] cells at 10 uM pretreated for 4 hrs followed by RANKL stimulation measured for 60 mins by Western blot method. It is filed as cell-based.
Data set [22] has as its system Mus musculus. Description: Inhibition of ovariectomized-induced osteoclast activity in C57BL/6 mouse femur at 20 mg/kg, ip administered for 60 days by tartrate-resistant acid phosphatase staining method. In kind it is functional, organism-based.
The subject of data set [23] is Mus musculus. Description: Toxicity in ovariectomized C57BL/6 mouse assessed as effect on body weight at 5 to 20 mg/kg, ip administered for 60 days measured every 7 days during compound dosing. In kind it is organism-based. The following applies: in vivo.
Data set [24] in a line: Cytotoxicity against C57BL/6 mouse bone marrow monocytes assessed as reduction in cell viability after 72 hrs in presence of M-CSF by MTS assay. It is filed as cell-based. The following applies: C57BL/6, Bone marrow monocyte.
In data set [25] the test system is Mus musculus. The data set can be described thus: Protection against ovariectomized-induced osteoporosis in C57BL/6 mouse assessed as increase in trabecular thickness of femur at 20 mg/kg, ip administered for 60 days by micro computed tomography. In kind it is functional, organism-based.
For data set [26], the species on record is Mus musculus. The data set can be described thus: Inhibition of RANKL-induced ERK phosphorylation in mouse […] cells at 10 uM pretreated for 4 hrs followed by RANKL stimulation measured for 60 mins by Western blot method. It is filed as cell-based.
Data set [27] deals with Bone marrow monocyte. The data set can be described thus: Inhibition of RANKL-induced TRAP mRNA expression in C57BL/6 mouse bone marrow monocytes at 10 uM in presence of M-CSF by SYBR green-dye based qRT-PCR analysis. In kind it is functional, cell-based. The note with it: TDE = time-dependent effect.
Data set [28] concerns Bone marrow monocyte. The data set can be described thus: Inhibition of RANKL-induced TRAP mRNA expression in C57BL/6 mouse bone marrow monocytes measured after 5 days in presence of M-CSF by SYBR green-dye based qRT-PCR analysis. It is filed as functional, cell-based.
The test system of data set [29] is Bone marrow monocyte. Description: Inhibition of RANKL-induced NFATc1 mRNA expression in C57BL/6 mouse bone marrow monocytes at 10 uM in presence of M-CSF by SYBR green-dye based qRT-PCR analysis. The following applies: TDE = time-dependent effect. It is filed as functional, cell-based.
Data set [30] deals with Mus musculus. Description: Protection against ovariectomized-induced osteoporosis in C57BL/6 mouse assessed as increase in ratio of bone volume to tissue volume of femur at 20 mg/kg, ip administered for 60 days by micro computed tomography. In kind it is functional, organism-based.
Data set [31] relates to Bone marrow monocyte. The data set can be described thus: Inhibition of RANKL-induced C-src mRNA expression in C57BL/6 mouse bone marrow monocytes at 10 uM in presence of M-CSF by SYBR green-dye based qRT-PCR analysis. It is filed as functional, cell-based. The following applies: TDE = time-dependent effect.
The subject of data set [32] is Mus musculus. The data set can be described thus: Protection against ovariectomized-induced osteoporosis in C57BL/6 mouse assessed as reduction in trabecular separation of femur at 20 mg/kg, ip administered for 60 days by micro computed tomography. In kind it is functional, organism-based.
Data set [33] is described as follows: Selectivity index, ratio of IC50 for C57BL/6 mouse bone marrow monocytes to IC50 for RANKL-induced C57BL/6 mouse bone marrow monocytes differentiation into osteoclasts. The arrangement: species or system Bone marrow monocyte.
In data set [34] the test system is Bone marrow monocyte. Described as §1. It is filed as functional, cell-based.
Data set [35] deals with Bone marrow monocyte. Description: Inhibition of RANKL-induced cathepsin K mRNA expression in C57BL/6 mouse bone marrow monocytes measured after 5 days in presence of M-CSF by SYBR green-dye based qRT-PCR analysis. In kind it is functional, cell-based.
Data set [36] concerns Bone marrow monocyte. Description: Inhibition of RANKL-induced CTR mRNA expression in C57BL/6 mouse bone marrow monocytes measured after 5 days in presence of M-CSF by SYBR green-dye based qRT-PCR analysis. In kind it is functional, cell-based.
Data set [37] in a line: Cytotoxicity against C57BL/6 mouse bone marrow monocytes assessed as reduction in cell viability at 2 uM after 72 hrs in presence of M-CSF by MTS assay. It is filed as cell-based. The following applies: bone marrow monocyte.
For data set [38], the system named is Mus musculus. The data set can be described thus: Protection against ovariectomized-induced osteoporosis in C57BL/6 mouse assessed as increase in trabecular number of femur at 20 mg/kg, ip administered for 60 days by micro computed tomography. It is filed as functional, organism-based.

Activity calls are given as the source filed them. No cut-off for these calls is given here.

Usually inhibition stands for the change of the read-out against control, counted positive when it falls. Broadly, the IC50 is the concentration that inhibits the measured activity by half.

In the case of `COc1ccc2c(c1)[C@@]1(C)Cc3nc(C)oc3C(C)(C)[C@@H]1CC2`, the inhibition at 10 µM in [1] turned out to be 100%. Moreover, the “Ratio IC50” value in [2] was found to be 2. Besides, the inhibition at 0.1 µM in [3] was 42.9%. In data set [4], the inhibition at 2 µM was determined as 99.2%. Also, the 50% inhibitory concentration (IC50) in data set [5] was determined as 0.33 µM. For the same compound, the inhibition at 0.5 µM in data set [6] stood at 75%.
As for `CC1(C)C(=O)CC[C@]2(C)[C@@H]1CC[C@@]13C[C@@H]4[C@@H](C[C@H]12)[C@]4(C(=O)O)C3`, the IC50 in [7] was found to be 4 µM.
As for `CC1(C)[C@H](O)C(=O)C[C@]2(C)[C@@H]1CC[C@]13CC4C[C@](O)(C1)[C@@H]4C[C@H]32`, in data set [7], the concentration for half-maximal inhibition (IC50) was determined as 15 µM.
On to `CNC(=O)c1cc2c(cc1OC)[C@@]1(C)Cc3nc(C)oc3C(C)(C)[C@@H]1CC2`, for which the outcome in the data set on Mus musculus [8], in the data set with Mus musculus [14], in the data set on Mus musculus [16], in the data set on Mus musculus [25], with Mus musculus [30] and in the data set on Mus musculus [32] was Active. In the data set on Mus musculus [38], the outcome was Active. For the same compound, the inhibition entry is “Dose-dependent effect” with Bone marrow monocyte [9]; “Tde” with Bone marrow monocyte [15]; “Tde” with Bone marrow monocyte [17]; “Dose-dependent effect” in the data set on Bone marrow monocyte [19]; “Tde” with Bone marrow monocyte [27]; “Dose-dependent effect” in the data set with Bone marrow monocyte [28]. Also, the inhibition result with Bone marrow monocyte [29] is “Tde”; in the data set on Bone marrow monocyte [31], “Tde”; in the data set with Bone marrow monocyte [34] it was “Dose-dependent effect”; in the data set on Bone marrow monocyte [35], “Dose-dependent effect”; in the data set on Bone marrow monocyte [36], “Dose-dependent effect”. The Activity result was “Toxic” in data set [10], “Non-Toxic” in [20], “Non-Toxic” with Mus musculus [23] and “Non-Toxic” in data set [37]. Moreover, the inhibition entry (in the data set listed under Mus musculus [11]; in [12]; in the data set filed under Mus musculus [18]; in the data set filed under Mus musculus [21]; with Mus musculus [22]; in the data set filed under Mus musculus [26]) was “Active” each time. For the same compound, the inhibition result with Mus musculus [13] is “inactive”. Besides, the “Ratio IC50” value in data set [2] came to 16; in data set [33] it was 2208. Also, in data set [3], the inhibition at 0.1 µM stood at 72.3%. Besides, the inhibition at 2 µM in [4] came out at 100%. For the same compound, the IC50 in data set [24] amounted to 88.3 µM; in data set [5], 0.04 µM. In addition, in data set [6], the inhibition at 0.5 µM is 92.7%.

Source of the values: ChEMBL document CHEMBL4038270, “Synthesis of heterocyclic ring-fused tricyclic diterpene analogs as novel inhibitors of RANKL-induced osteoclastogenesis and bone resorption” (Eur J Med Chem, 2017).
